Measurements reported in PubChem BioAssay (NCI).
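Test compounds were applied to cells in 96-well plates for 48 hours at 5 doses. TGI is the concentration that stops growth completely.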

What was measured:
Assay in all cases: NCI tumour cell line growth inhibition, 48 h
BT-549 breast = test system: BT-549 breast
HCC-2998 colon = test system: HCC-2998 colon
HL-60(TB) leukemia = test system: HL-60(TB) leukemia
HOP-62 NSCLC = test system: HOP-62 NSCLC
HT29 colon = test system: HT29 colon
K-562 leukemia = test system: K-562 leukemia
KM12 colon = test system: KM12 colon
MCF7 breast = test system: MCF7 breast
MDA-MB-435 = test system: MDA-MB-435
MDA-N = test system: MDA-N
MOLT-4 leukemia = test system: MOLT-4 leukemia
NCI-H23 lung = test system: NCI-H23 lung
OVCAR-5 ovarian = test system: OVCAR-5 ovarian
SK-MEL-5 melanoma = test system: SK-MEL-5 melanoma
SN12C renal = test system: SN12C renal
SNB-75 CNS = test system: SNB-75 CNS
UO-31 renal = test system: UO-31 renal

Row | Structure (SMILES) | TGI (BT-549 breast) | TGI (HCC-2998 colon) | TGI (HL-60(TB) leukemia) | TGI (HOP-62 NSCLC) | TGI (HT29 colon) | TGI (K-562 leukemia) | TGI (KM12 colon) | TGI (MCF7 breast) | TGI (MDA-MB-435) | TGI (MDA-N) | TGI (MOLT-4 leukemia) | TGI (NCI-H23 lung) | TGI (OVCAR-5 ovarian) | TGI (SK-MEL-5 melanoma) | TGI (SN12C renal) | TGI (SNB-75 CNS) | TGI (UO-31 renal)
1 | COC(=O)C1=C(C)NC(C)=C(C(=O)OC)C1c1ccc(/[N+]([O-])=C/c2ccccc2)cc1 | 40.1 µM | > 100 µM | 63.2 µM | > 100 µM | > 100 µM | > 100 µM | > 100 µM | 30.4 µM | > 100 µM | > 100 µM | 71.5 µM | > 100 µM | > 100 µM | > 100 µM | > 100 µM | > 100 µM | > 100 µM
2 | CC1(C)OCC2OC3(c4nc(C#N)c(N)o4)OC(C)(C)OC3C2O1 (configuration not stated) | > 100 µM | > 100 µM | > 100 µM | > 100 µM | > 100 µM | > 100 µM | > 100 µM | > 100 µM | > 100 µM | > 100 µM | > 100 µM | > 100 µM | > 100 µM | > 100 µM | > 100 µM | > 100 µM | > 100 µM
3 | Cc1cccc2c1Oc1cc(Cl)ccc1C2NC(=O)CCN1CCOCC1 (configuration not stated) | > 100 µM | > 100 µM | > 100 µM | > 100 µM | > 100 µM | > 100 µM | > 100 µM | > 100 µM | > 100 µM | > 100 µM | > 100 µM | > 100 µM | > 100 µM | > 100 µM | > 100 µM | > 100 µM | > 100 µM
4 | COc1ccc2c(c1C)C(=O)C(O)(CC=C(C)C)O2 (configuration not stated) | > 100 µM | > 100 µM | > 100 µM | > 100 µM | > 100 µM | > 100 µM | > 100 µM | > 100 µM | > 100 µM | > 100 µM | > 100 µM | > 100 µM | > 100 µM | > 100 µM | > 100 µM | > 100 µM | > 100 µM
5 | CCN(CC)/C(Cl)=C(Cl)\C(=C1\Nc2ccc(OC)cc21)[N+](=O)[O-] | > 100 µM | > 100 µM | > 100 µM | > 100 µM | > 100 µM | > 100 µM | > 100 µM | > 100 µM | > 100 µM | > 100 µM | 85.2 µM | > 100 µM | > 100 µM | > 100 µM | > 100 µM | 81.8 µM | > 100 µM
6 | CCOC(=O)C1(C(=O)OCC)CN(CC)CN(c2ccccc2)C1 | 86.6 µM | 28.9 µM | 50.1 µM | 40.4 µM | 37.8 µM | > 100 µM | > 100 µM | 35.1 µM | 37.3 µM | 87.9 µM | 40.4 µM | 39 µM | 34.9 µM | > 100 µM | > 100 µM | 39.3 µM | 46.6 µM
